Reference: PMC13184981, “Discovery and Development of a Potent LIMK2 Isoform-Specific Degrader” (ACS Chemical Biology, 2026)

Tests used:
Type in all cases: cell-based
[1] = target: T1, NanoLuc-tagged LIMK2 and Halo-tagged CRBN (Homo sapiens, UniProt P53671+Q96SW2); experiment: NanoBRET cellular ternary complex formation, LIMK2
T1 construct: CRBN vector in-house NV1531; host or cells: HEK293T
Excerpt: (§1) Next, we assessed ternary complex formation for the parent and lead PROTACs in live cells using the NanoBRET proximity assay. A ternary complex assay system was established using NanoLuc-tagged LIMKs and Halo-tagged CRBN. Formation of the ternary complex upon PROTAC addition was quantified by measuring the BRET signal. […] However, they differed in the strength of the ternary complex. […] We also confirmed the differences in ternary complex strength using the orthogonal PROXICapture approach, in which MOLT-4 cell lysate was passed over immobilized FLAG-tagged CRBN preincubated with THNAN69.
(§2) Gene encoding LIMK1 (Promega, NV3391) and LIMK2 (Promega, NV1531) proteins cloned in frame with NanoLuc fusion tag at the C-Terminus and gene encoding cereblon (generated in-house) cloned in frame with Halo Tag at the N-Terminus, were used to measure the end-point ternary complex formation between the PROTACs and LIMK1 and LIMK2, respectively. […] To measure BRET, NanoBRET NanoGlo Substrate + Extracellular NanoLuc Inhibitor (Promega, N2162) was added to cells as per the manufacturer’s protocol, and filtered luminescence was measured on a PHERAstar FSX plate reader (BMG Labtech) equipped with a luminescence filter pair (450 nm BP filter (donor) and 610 nm LP filter (acceptor)). […]

[2] = target: T2, EGFP–LIMK2 (Homo sapiens, UniProt P53671); experiment: EGFP-LIMK2 depletion live-cell assay (Incucyte)
T2 construct: P2A remnant (from EGFP-LIMK2-P2A-mCherry; that residues stay on LIMK2 after self-cleavage is own knowledge) (C); expressed in transfected cells; host or cells: HuCCT1 (lentiviral transduction, doxycycline-inducible pCW57 vector)
Procedure: To enable a more comprehensive and rapid evaluation of the synthesized PROTACs, we generated a stable, doxycycline-inducible HuCCT1 cell line that expressed an N-terminally fused EGFP–LIMK2 protein. […] The degradation activity of the synthesized PROTACs set was screened at five concentrations ranging from 1 nM to 1000 nM over 72 h using live-cell imaging (Figure E).
LIMK2 was cloned into pcDNA5-EGFP-NLS-P2A-mCherry-PTS1 (Addgene plasmid #87803) by replacing the NLS sequence with the LIMK2 sequence. pcDNA5-EGFP-NLS-P2A-mCherry-PTS1 was a gift from Andrea Musacchio. Subsequently, EGFP-[…]-P2A-mCherry was cloned into the lentiviral vector pCW57-MCS1-P2A-MCS2 (Hygro) (Addgene plasmid #80922) to generate pCW57-HygB-EGFP-LIMK2-P2A-mCherry. pCW57-MCS1-P2A-MCS2 (Hygro) was a gift from Adam Karpf.
HEK293T cells (ATCC, CRL-3216) were cultured in Dulbecco’s Modified Eagle’s Medium (DMEM), while HUCCT1 cells (ATCC, CRL-1997) were cultured in RPMI medium supplemented with 10% fetal bovine serum (FBS) and 1% penicillin/streptomycin (P/S) antibiotic mix (all from Sigma-Aldrich, St. Louis, Missouri, USA). Lentiviral particles were produced in HEK293T cells using pCW57-HygB-EGFP-LIMK2-[…]P2A-mCherry, pMD2.G, and psPAX2. HUCCT1 cells were transduced with lentivirus to express LIMK2.
Briefly, the cells were plated and propagated in 6-well plates overnight. The next day, transduction with viruses was performed. Two days later, transduced cells with pCW57-HygB-EGFP-LIMK2-P2A-mCherry plasmids were selected using 100 μg/mL Hygromycin B. After at least three passages, the cells were sorted for the same populations of RFP- and GFP-expressing cells using the SH800S Cell Sorter (Sony Biotechnology, San Jose, CA, USA). Stable pools of cells were maintained in the same medium used for selection.
To assess the turnover of LIMK2, we used the Incucyte S3 or XS5 live-cell imaging system and performed the assay as previously described. , Briefly, 2,000 HUCCT1 cells stably expressing EGFP-LIMK2-P2A-mCherry were seeded per well in a 384-well plate in 50 μL of RPMI medium supplemented with 10% fetal bovine serum (FBS) and 1% penicillin/streptomycin. Cells were incubated for 24 h before treatment. To induce LIMK2 expression, 1 μg/mL of doxycycline (Sigma-Aldrich, D9891–1G) was added at the time of seeding.
After 24 h, 50 μL of medium containing either 0.1% DMSO or the desired concentration of PROTACs was added. Fluorescence in three channels–GFP, RFP, and phase contrast (cell confluence)–was monitored every 2 h for 72 h using the Incucyte S3 or XS5 (Sartorius, Germany). LIMK2 turnover was quantified by calculating the ratio of total fluorescence intensity of RFP to GFP. Each time point represents the average ratio from three technical replicates.

[3] = target: T3, NanoLuc-tagged LIMK1 and Halo-tagged CRBN (Homo sapiens, UniProt P53667+Q96SW2); experiment: NanoBRET cellular ternary complex formation, LIMK1
T3 construct: CRBN vector in-house NV3391; host or cells: HEK293T
Excerpt: as §1, §2

T2 sequence (P53671 whole entry): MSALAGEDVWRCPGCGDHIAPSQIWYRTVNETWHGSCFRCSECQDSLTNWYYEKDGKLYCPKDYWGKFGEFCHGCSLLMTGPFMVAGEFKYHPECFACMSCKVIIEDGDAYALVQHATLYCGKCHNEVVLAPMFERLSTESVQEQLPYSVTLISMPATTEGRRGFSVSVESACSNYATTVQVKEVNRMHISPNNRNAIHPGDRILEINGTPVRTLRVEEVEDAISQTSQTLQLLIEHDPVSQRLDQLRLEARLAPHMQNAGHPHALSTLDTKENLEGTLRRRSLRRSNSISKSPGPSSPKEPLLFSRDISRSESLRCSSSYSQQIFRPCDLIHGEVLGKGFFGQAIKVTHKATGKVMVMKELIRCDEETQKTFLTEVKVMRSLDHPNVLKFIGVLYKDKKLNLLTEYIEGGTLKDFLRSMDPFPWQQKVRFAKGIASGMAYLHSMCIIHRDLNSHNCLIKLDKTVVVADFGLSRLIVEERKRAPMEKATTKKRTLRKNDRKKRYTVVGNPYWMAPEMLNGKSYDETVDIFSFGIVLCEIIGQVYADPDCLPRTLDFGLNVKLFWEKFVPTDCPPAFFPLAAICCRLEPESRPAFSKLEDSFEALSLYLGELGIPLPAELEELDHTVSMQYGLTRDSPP
T3 sequence (P53667 whole entry): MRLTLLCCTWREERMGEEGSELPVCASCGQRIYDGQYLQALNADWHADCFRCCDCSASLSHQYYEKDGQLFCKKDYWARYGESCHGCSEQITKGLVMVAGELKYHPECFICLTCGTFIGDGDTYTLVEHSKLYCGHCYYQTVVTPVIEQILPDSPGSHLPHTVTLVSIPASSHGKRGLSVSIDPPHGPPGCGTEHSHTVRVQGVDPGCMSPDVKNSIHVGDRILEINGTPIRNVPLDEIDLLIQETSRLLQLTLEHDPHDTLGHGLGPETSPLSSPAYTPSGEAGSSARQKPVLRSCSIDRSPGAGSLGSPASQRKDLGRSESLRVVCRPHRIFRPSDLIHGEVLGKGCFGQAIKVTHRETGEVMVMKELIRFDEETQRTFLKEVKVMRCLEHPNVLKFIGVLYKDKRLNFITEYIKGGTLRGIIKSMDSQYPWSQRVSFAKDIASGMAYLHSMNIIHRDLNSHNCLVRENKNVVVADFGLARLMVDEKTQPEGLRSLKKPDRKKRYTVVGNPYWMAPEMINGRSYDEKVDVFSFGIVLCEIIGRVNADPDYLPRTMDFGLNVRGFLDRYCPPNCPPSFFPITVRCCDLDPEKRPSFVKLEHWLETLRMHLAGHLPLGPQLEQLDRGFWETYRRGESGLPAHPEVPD
T3 sequence (Q96SW2 whole entry): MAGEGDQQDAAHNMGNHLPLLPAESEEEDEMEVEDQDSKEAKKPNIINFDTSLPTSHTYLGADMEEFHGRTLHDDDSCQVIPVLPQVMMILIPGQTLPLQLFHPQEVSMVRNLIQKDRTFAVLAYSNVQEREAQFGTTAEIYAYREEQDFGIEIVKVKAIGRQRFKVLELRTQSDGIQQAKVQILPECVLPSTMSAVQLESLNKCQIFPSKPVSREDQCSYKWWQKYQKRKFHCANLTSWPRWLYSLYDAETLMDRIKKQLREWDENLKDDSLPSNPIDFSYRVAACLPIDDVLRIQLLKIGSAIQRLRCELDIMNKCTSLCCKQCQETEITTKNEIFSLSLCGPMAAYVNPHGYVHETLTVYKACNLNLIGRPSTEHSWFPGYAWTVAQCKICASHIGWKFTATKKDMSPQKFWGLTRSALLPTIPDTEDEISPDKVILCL
T3 sequence (Q16531 whole entry partner): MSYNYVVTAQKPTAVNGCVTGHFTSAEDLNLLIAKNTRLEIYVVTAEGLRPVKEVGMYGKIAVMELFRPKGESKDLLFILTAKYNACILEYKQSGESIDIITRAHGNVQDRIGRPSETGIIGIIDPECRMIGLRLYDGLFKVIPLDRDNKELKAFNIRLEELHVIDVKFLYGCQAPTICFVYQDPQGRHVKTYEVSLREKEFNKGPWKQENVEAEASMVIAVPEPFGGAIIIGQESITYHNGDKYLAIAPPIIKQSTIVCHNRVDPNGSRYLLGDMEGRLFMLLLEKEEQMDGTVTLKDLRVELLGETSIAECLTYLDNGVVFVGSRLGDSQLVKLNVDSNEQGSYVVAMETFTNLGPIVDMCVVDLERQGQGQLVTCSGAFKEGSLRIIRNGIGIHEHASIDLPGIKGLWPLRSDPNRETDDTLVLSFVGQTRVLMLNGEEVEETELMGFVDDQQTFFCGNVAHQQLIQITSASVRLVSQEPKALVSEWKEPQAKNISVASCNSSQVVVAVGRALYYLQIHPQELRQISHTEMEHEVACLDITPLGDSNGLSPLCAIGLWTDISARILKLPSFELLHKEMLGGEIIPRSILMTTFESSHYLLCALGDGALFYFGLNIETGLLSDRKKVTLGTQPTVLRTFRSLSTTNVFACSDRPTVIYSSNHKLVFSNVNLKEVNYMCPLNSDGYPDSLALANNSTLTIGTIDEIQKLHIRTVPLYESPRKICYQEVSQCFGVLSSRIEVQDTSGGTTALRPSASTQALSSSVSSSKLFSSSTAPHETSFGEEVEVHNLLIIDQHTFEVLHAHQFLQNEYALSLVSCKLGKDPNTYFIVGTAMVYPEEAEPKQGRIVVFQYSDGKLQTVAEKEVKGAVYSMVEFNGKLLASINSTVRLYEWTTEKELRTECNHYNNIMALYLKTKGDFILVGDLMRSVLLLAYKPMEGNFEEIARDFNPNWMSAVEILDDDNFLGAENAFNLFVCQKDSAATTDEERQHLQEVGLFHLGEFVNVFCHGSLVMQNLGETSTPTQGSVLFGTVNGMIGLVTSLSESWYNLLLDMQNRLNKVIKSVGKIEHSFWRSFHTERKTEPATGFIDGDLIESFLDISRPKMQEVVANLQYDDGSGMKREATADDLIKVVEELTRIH
T1 sequence (P53671 whole entry): as the sequence (P53671 whole entry) above
T1 sequence (Q96SW2 whole entry): as the sequence (Q96SW2 whole entry) above
T1 sequence (Q16531 whole entry partner): as the sequence (Q16531 whole entry partner) above

Work on `Cc1c(OCc2cn(CCCCC(=O)Nc3ncc(-c4cc(C(F)F)nn4-c4c(Cl)cccc4Cl)s3)nn2)cccc1N1CCC(=O)NC1=O` [22b] yielded an EC50 [1] of 77 nM, a Dmax ([2]; 10 nM PROTAC) of 88.2% and a Dmax ([2]; 100 nM PROTAC) of 97.6%. The Dmax ([2]; 1000 nM PROTAC) was 98.5%, the “time to maximum degradation after PROTAC treatment” value ([2]; EGFP–LIMK2 monitored over 72 h) was “approximately 60 h” and the “EGFP–LIMK2 degradation with MLN4924 cotreatment” value ([2]; PROTAC 10, 100 and 1000 nM + MLN4924 1 μM) was “no LIMK2 degradation”. For the same molecule, the EC50 [3] was 300 nM.
